Literature values in patent publication US12274284B2, “High-energy food supplement based on inverted sugars and ergogenic products for use in physical activity and method for producing same” (priority 2019, dated 2025).
Where two headings read alike, the source gives them in different places.

What was measured:
[1] = tested on: muscle carnosine concentrations; conditions: 4-6 g/day
oxidative stress markers = conditions: 300 mg/kg, 15 days, mice
action of insulin = conditions: 5%, 8 weeks, mice
[2] = not given; remark: listed apart in the source
[3] = oral administration
[4] = 1 to 6 g/day for a maximum of six months
[5] = 300 mg/day

NCCC(=O)O [β-alanine]
increase in muscle carnosine concentrations ([1]; after 10 weeks): 80% | increase in muscle carnosine concentrations ([1]; following 4 weeks): ≤ 64%

NCCS(=O)(=O)O [taurine, 2-aminoethanesulfonic acid]
superoxide radicals, lipid peroxidation, carbonylation (oxidative stress markers): reduced the production of superoxide radicals, lipid peroxidation, and carbonylation | action of insulin in liver and skeletal muscle (action of insulin): boosted the action of insulin in the liver and the skeletal muscle

CC(=O)C(=O)O [pyruvate, calcium pyruvate]
patients with a fat loss (0.05 g/Kg/day after 0.1 g/kg/day for 10 days, 13 to 38 days): 79.6% | patients with a reduction in skinfolds (in vivo): 89.8% | patients with a reduction in the abdomen circumference (in vivo): 74%

vitamin E
blood plasma concentration of a protein associated with muscle injury ([2]; 1000 UI/day): reduced the concentration of a protein associated with muscle injury in the blood plasma

O=C1O[C@H]([C@@H](O)CO)C(O)=C1O [vitamin C]
tissue concentration of the vitamin ([2]; 400 mg/day): increased the tissue concentration of the vitamin

Cn1c(=O)c2c(ncn2C)n(C)c1=O [Caffeine, 1,3,7 trimethylxanthine]
bioavailability [3]: approximately 100%

C[N+](C)(C)C[C@H](O)CC(=O)[O-] [carnitine, L-carnitine]
adverse effect or intoxication [4]: no adverse effect or intoxication | plasma concentrations of carnitine [4]: considerably improved the plasma concentrations of carnitine

COC1=C(OC)C(=O)C(C/C=C(\C)CC/C=C(\C)CC/C=C(\C)CC/C=C(\C)CC/C=C(\C)CC/C=C(\C)CC/C=C(\C)CC/C=C(\C)CC/C=C(\C)CCC=C(C)C)=C(C)C1=O [coenzyme Q10]
feeling of tiredness and physical performance during effort tests [5]: reduced the feeling of tiredness and improved physical performance
